Laboratory results published in patent US7973012B2, “C-phenyl glycitol compound” (Taisho Pharmaceutical Co., Ltd, priority 2006, dated 2011).

Columns and labels:
human SGLT2 = target: T1, human SGLT2 (Homo sapiens, UniProt P31639); experiment: Inhibition test of sodium-dependent sugar uptake in CHO-k1 cells stably expressing human SGLT2; type: cell-based; conditions: for IC50: CHO-k1 cells expressing human SGLT2, [14C]methyl α-D-glucopyranoside uptake, 37° C., an hour; for SGLT2 % inhibition at 100 nM: sugar uptake inhibition rate at 100 nM test compound vs control group
T1 construct: expressed in transfected cells; host or cells: CHO-k1
T1 sequence (P31639 1-672): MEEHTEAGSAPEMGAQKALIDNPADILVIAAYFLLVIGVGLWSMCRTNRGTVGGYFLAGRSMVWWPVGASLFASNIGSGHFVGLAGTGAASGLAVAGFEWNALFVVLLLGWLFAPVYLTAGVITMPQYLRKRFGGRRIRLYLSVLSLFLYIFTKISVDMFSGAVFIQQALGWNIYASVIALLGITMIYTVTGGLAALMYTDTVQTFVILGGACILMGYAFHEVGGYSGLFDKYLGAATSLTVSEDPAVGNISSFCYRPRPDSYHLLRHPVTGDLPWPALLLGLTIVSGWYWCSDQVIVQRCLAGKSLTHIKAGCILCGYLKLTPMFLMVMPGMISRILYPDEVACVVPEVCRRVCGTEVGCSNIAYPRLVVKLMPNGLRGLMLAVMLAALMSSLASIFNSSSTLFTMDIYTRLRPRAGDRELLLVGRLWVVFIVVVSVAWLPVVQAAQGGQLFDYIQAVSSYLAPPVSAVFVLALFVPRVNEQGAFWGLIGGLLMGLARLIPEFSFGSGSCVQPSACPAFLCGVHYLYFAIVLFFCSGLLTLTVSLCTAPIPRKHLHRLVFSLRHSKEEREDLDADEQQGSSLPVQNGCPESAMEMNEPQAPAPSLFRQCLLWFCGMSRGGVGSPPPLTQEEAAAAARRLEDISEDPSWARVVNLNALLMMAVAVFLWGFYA
Experimental: (§1) An SGLT1 sequence (NM_000343) was reverse-transcripted from human small intestinal mRNA, then amplified, and then introduced into pCMV-tag5A from Stratagene Corporation. An SGLT2 sequence (NM_003041) was prepared from human nephric mRNA as with the above method, and then introduced into pcDNA3.1+hygro from Invitrogen Corporation. Each cloned sequence was confirmed to be identical with the reported sequence.
(§2) The human SGLT1 and human SGLT2 expression vectors were transfected into CHO-k1 cells by using Lipofectamine 2000 from Invitrogen Corporation. The SGLT expression cells were incubated in the presence of Geneticin (SGLT1) or Hygromycin B (SGLT2) at a 500 μg/mL concentration to select resistant strains, and specific activity of sugar uptake was obtained as an indicator by the following system.
(§3) Cells stably expressing human SGLT1 and human SGLT2 were used for the inhibition test of sodium-dependent glucose uptake.
(§4) The cells were incubated in a pretreatment buffer A (200 μL for SGLT1, and 2 mL for SGLT2) for 20 minutes. The pretreatment buffer was removed and an uptake buffer B (75 μL for SGLT1, and 200 μL for SGLT2) containing a test compound was added to conduct an uptake reaction at 37° C. for 30 minutes (SGLT1) or an hour (SGLT2). After the reaction, the cells were washed with a washing buffer C twice (200 μL for SGLT1, and 2 mL for SGLT2), and then dissolved in a 0.2 M solution of NaOH (75 μL for SGLT1, and 400 μL for SGLT2). After a liquid scintilater was added thereto and mixed sufficiently, radioactivity was measured with microBETA (SGLT1) or a liquid scintillation counter from Beckman Coulter, Inc (SGLT2). As a control group, an uptake buffer containing no test compound was prepared. In addition, as the basic uptake buffer, an uptake buffer B containing choline chloride instead of NaCl was prepared. • A pretreatment buffer A: 140 mM choline chloride, 2 mM KCl, 1 mM CaCl2, 1 mM MgCl2, 10 mM HEPES/5 mM Tris, pH 7.4. • An uptake buffer B: 1 mM of methyl α-D-glucopyranoside containing [^14C]methyl α-D-glucopyranoside, 140 mM NaCl, 2 mM KCl, 1 mM CaCl2, 1 mM MgCl2, 10 mM HEPES/5 mM Tris, pH 7.4. • A washing buffer C: 10 mM methyl α-D-glucopyranoside, 140 mM choline chloride, 2 mM KCl, 1 mM CaCl2, 1 mM MgCl2, 10 mM HEPES/5 mM Tris, pH 7.4.
(§5) In order to obtain IC50 values, test compounds having adequate 6 concentrations were used and the test compound concentrations (IC50 values) at which sugar uptake is inhibited by 50% in comparison with the amount of sugar uptake (100%) of the control group were calculated.
(§6) In addition, the sugar uptake inhibition rates at 100 nM concentration of the test compound in comparison with the control group are shown in Table 7.

human SGLT1 = target: T2, human SGLT1 (Homo sapiens, UniProt P13866); experiment: Inhibition test of sodium-dependent sugar uptake in CHO-k1 cells stably expressing human SGLT1; type: cell-based; conditions: for IC50: CHO-k1 cells expressing human SGLT1, [14C]methyl α-D-glucopyranoside uptake, 37° C., 30 minutes; for SGLT1 % inhibition at 100 nM: sugar uptake inhibition rate at 100 nM test compound vs control group
T2 construct: expressed in transfected cells; host or cells: CHO-k1
T2 sequence (P13866 1-664): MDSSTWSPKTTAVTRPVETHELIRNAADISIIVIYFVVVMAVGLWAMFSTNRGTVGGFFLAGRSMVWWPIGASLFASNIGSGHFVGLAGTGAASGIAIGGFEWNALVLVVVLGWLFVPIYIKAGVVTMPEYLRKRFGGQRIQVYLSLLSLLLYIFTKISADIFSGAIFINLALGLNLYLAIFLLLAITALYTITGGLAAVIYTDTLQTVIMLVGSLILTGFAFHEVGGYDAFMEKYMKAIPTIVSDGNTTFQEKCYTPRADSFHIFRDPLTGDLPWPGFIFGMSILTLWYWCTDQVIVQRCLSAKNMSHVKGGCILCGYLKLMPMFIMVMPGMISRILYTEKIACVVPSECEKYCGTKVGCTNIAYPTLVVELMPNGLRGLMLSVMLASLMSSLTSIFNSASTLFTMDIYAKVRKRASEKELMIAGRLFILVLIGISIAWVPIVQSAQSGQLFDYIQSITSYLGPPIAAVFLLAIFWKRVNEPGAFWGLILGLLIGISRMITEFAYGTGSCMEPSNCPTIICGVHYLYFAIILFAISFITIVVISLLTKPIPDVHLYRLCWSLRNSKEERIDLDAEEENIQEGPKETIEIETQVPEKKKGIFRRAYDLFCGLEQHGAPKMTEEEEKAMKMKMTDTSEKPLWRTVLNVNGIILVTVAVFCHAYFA
Experimental: as §1, §2, §3, §4, §5, §6

| Compound | IC50 (human SGLT2) [nM] | IC50 (human SGLT1) [nM] | SGLT2 % inhibition at 100 nM (human SGLT2) [%] | SGLT1 % inhibition at 100 nM (human SGLT1) [%] |
| --- | --- | --- | --- | --- |
| Cc1cc(O)c([C@@H]2O[C@H](CO)[C@@H](O)[C@H](O)[C@H]2O)cc1Cc1ccc(CCNC(=O)N2CCC(C)CC2)cc1 [Compound 36] | 34 | 94 |  |  |
| CSCC[C@@H](CO)NC(=O)NCCc1ccc(Cc2cc([C@@H]3O[C@H](CO)[C@@H](O)[C@H](O)[C@H]3O)c(O)cc2C)cc1 [Compound 47] |  |  | 89 | 73 |
| COCCNC(=O)NCCc1ccc(Cc2cc([C@@H]3O[C@H](CO)[C@@H](O)[C@H](O)[C@H]3O)c(O)cc2C)cc1 [Compound 31] | 39 | 148 |  |  |
| Cc1cc(O)c([C@@H]2O[C@H](CO)[C@@H](O)[C@H](O)[C@H]2O)cc1Cc1ccc(CCNC(=O)NC2CN3CCC2CC3)cc1 (stereo partly drawn) [Compound 34] | 10 | 49 |  |  |
| Cc1cc(O)c([C@@H]2O[C@H](CO)[C@@H](O)[C@H](O)[C@H]2O)cc1Cc1ccc(CCNC(=O)NC2C3CC4CC(C3)CC2C4)cc1 (stereo partly drawn) [Compound 123] |  |  | 87 | 78 |
| Cc1cc(O)c([C@@H]2O[C@H](CO)[C@@H](O)[C@H](O)[C@H]2O)cc1Cc1ccc(CCNC(=O)NCCCCc2ccccc2)cc1 [Compound 62] |  |  | 79 | 65 |
| Cc1cc(O)c([C@@H]2O[C@H](CO)[C@@H](O)[C@H](O)[C@H]2O)cc1Cc1ccc(CCNC(=O)NCc2ccco2)cc1 [Compound 42] |  |  | 87 | 78 |
| Cc1cc(O)c([C@@H]2O[C@H](CO)[C@@H](O)[C@H](O)[C@H]2O)cc1Cc1ccc(CCNC(=O)NC(Cc2ccccc2)C(N)=O)cc1 (stereo partly drawn) [Compound 60] |  |  | 91 | 66 |
| Cc1cc(O)c([C@@H]2O[C@H](CO)[C@@H](O)[C@H](O)[C@H]2O)cc1Cc1ccc(CCNC(=O)N[C@@H](Cc2ccccc2)C(N)=O)cc1 [Compound 40] |  |  | 89 | 79 |
| Cc1cc(O)c([C@@H]2O[C@H](CO)[C@@H](O)[C@H](O)[C@H]2O)cc1Cc1ccc(CCNC(=O)N[C@H](CO)Cc2ccccc2)cc1 [Compound 48] |  |  | 87 | 73 |
| Cc1cc(O)c([C@@H]2O[C@H](CO)[C@@H](O)[C@H](O)[C@H]2O)cc1Cc1ccc(CCNC(=O)NCCc2ccc(F)cc2)cc1 [Compound 52] |  |  | 84 | 71 |
| O=C(NCCc1ccc(Cc2cc([C@@H]3O[C@H](CO)[C@@H](O)[C@H](O)[C@H]3O)ccc2Cl)cc1)NC(CO)(CO)CO [Compound 17, (1S)-1,5-anhydro-1-[4-chloro-3-[4-[2-[[[2-hydroxy-1,1-bis(hydroxymethyl)ethyl]aminocarbonyl]amino]ethyl]benzyl]phenyl]-D-glucitol] | 25 | 79 |  |  |
| CCC(CO)NC(=O)NCCc1ccc(Cc2cc([C@@H]3O[C@H](CO)[C@@H](O)[C@H](O)[C@H]3O)c(O)cc2C)cc1 (stereo partly drawn) [Compound 50] |  |  | 77 | 71 |
| Cc1cc(O)c([C@@H]2O[C@H](CO)[C@@H](O)[C@H](O)[C@H]2O)cc1Cc1ccc(OCCNC(=O)NC(CO)(CO)CO)cc1 [Compound 19] | 101 | 302 |  |  |
| COC(=O)CCNC(=O)NCCc1ccc(Cc2cc([C@@H]3O[C@H](CO)[C@@H](O)[C@H](O)[C@H]3O)c(O)cc2C)cc1 [Compound 32] | 44 | 245 |  |  |
| Cc1cc(O)c([C@@H]2O[C@H](CO)[C@@H](O)[C@H](O)[C@H]2O)cc1Cc1ccc(CCNC(=O)NCc2cc3ccccc3s2)cc1 [Compound 61] |  |  | 95 | 65 |
| Cc1cc(O)c([C@@H]2O[C@H](CO)[C@@H](O)[C@H](O)[C@H]2O)cc1Cc1ccc(CCNC(=O)NC2CCN(Cc3ccccc3)CC2)cc1 [Compound 33] | 11 | 12 |  |  |
| Cc1cc(O)c([C@@H]2O[C@H](CO)[C@@H](O)[C@H](O)[C@H]2O)cc1Cc1ccc(CCNC(=O)NC(C)(C)C)cc1 [Compound 39] |  |  | 83 | 80 |
| CSCCNC(=O)NCCc1ccc(Cc2cc([C@@H]3O[C@H](CO)[C@@H](O)[C@H](O)[C@H]3O)c(O)cc2C)cc1 [Compound 29] | 17 | 75 |  |  |
| Cc1cc(O)c([C@@H]2O[C@H](CO)[C@@H](O)[C@H](O)[C@H]2O)cc1Cc1ccc(CCNC(=O)NCc2ccccc2)cc1 [Compound 68] |  |  | 83 | 60 |
| COc1ccc(CCNC(=O)NCCc2ccc(Cc3cc([C@@H]4O[C@H](CO)[C@@H](O)[C@H](O)[C@H]4O)c(O)cc3C)cc2)cc1OC [Compound 55] |  |  | 69 | 69 |
| COC(=O)CNC(=O)NCCc1ccc(Cc2cc([C@@H]3O[C@H](CO)[C@@H](O)[C@H](O)[C@H]3O)c(O)cc2C)cc1 [Compound 21] | 34 | 75 |  |  |
| Cc1cc(O)c([C@@H]2O[C@H](CO)[C@@H](O)[C@H](O)[C@H]2O)cc1Cc1ccc(CCNC(=O)NCc2cc(Cl)cc(Cl)c2)cc1 [Compound 27] | 15 | 54 |  |  |
| Cc1cc(O)c([C@@H]2O[C@H](CO)[C@@H](O)[C@H](O)[C@H]2O)cc1Cc1ccc(CCNC(=O)NCCN2CCCC2)cc1 [Compound 30] | 13 | 111 |  |  |
| Cc1cc(O)c([C@@H]2O[C@H](CO)[C@@H](O)[C@H](O)[C@H]2O)cc1Cc1ccc(CCNC(=O)NCC2CCCO2)cc1 (stereo partly drawn) [Compound 65] |  |  | 76 | 62 |
| CCCN(CC1CC1)C(=O)NCCc1ccc(Cc2cc([C@@H]3O[C@H](CO)[C@@H](O)[C@H](O)[C@H]3O)c(O)cc2C)cc1 [Compound 25] | 20 | 64 |  |  |
| Cc1cc(O)c([C@@H]2O[C@H](CO)[C@@H](O)[C@H](O)[C@H]2O)cc1Cc1ccc(CCNC(=O)NCCc2ccccc2)cc1 [Compound 71] |  |  | 86 | 59 |
